Calls of active or inactive are those of the source.
Key:
Leucine aminopeptidase = target: T1, Leucine aminopeptidase (Plasmodium falciparum 3D7, UniProt Q8IL11); assay: P. falciparum M17LAP inhibitors, primary screen, biochemical, fluorogenic H-Leu-NHMec substrate, 1536-well (AID 1619); type: functional
T1 sequence (Q8IL11 whole entry): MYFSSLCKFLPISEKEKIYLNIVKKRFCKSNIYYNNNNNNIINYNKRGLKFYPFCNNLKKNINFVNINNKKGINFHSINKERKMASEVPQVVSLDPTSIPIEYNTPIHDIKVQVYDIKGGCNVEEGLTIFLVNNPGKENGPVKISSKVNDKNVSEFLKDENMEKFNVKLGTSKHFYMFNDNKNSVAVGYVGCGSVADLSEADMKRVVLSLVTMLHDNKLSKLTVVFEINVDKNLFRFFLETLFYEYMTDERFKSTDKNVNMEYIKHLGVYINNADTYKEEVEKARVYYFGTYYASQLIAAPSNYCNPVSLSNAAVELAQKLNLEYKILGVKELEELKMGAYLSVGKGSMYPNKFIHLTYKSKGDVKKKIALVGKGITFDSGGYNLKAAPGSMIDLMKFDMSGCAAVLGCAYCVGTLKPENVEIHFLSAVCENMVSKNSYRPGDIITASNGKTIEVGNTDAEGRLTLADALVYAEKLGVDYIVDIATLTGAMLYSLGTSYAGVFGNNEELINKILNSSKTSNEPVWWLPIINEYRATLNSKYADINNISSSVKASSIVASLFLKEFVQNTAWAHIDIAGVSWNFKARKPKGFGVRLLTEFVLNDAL

[1] = target: T2, RNA-binding protein pos-1 (Caenorhabditis elegans, UniProt G5EF15); assay: disruptors of C. elegans POS-1 RNA interaction – biochemical, fluorescence polarization, dose response (AID 1964);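 note: purified POS-1 fused to maltose binding protein made in E. coli; potency of compounds blocking POS-1 binding to fluorescent RNA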
T2 sequence (G5EF15 whole entry): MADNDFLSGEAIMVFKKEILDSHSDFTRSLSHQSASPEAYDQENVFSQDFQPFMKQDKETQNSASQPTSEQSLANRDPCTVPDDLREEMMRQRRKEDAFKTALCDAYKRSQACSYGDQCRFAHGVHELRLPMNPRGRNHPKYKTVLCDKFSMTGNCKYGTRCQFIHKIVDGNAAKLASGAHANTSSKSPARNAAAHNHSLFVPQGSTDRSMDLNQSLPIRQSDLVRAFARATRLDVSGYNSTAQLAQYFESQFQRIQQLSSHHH

[2] = target: T3, Zinc finger protein mex-5 (Caenorhabditis elegans, UniProt Q9XUB2); assay: potency of MEX-5 RNA-binding blockers – biochemical, C. elegans, fluorescence polarization, dose response (AID 1960)
T3 sequence (Q9XUB2 whole entry): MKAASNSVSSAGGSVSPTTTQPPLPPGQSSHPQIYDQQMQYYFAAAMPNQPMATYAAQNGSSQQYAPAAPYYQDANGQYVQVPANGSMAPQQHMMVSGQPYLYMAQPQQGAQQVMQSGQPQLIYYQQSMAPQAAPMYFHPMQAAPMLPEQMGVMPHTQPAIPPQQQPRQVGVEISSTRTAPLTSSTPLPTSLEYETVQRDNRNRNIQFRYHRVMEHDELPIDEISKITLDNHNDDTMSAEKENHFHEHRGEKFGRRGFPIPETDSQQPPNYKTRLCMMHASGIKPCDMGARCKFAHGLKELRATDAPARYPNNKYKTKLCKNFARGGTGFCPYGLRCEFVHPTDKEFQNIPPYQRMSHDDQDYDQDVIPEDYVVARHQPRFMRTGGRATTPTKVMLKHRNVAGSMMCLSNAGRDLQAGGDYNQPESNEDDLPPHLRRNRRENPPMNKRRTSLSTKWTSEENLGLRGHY

[3] = antibacterial activity against E. coli NEB5alpha – luminescence, counter-screen for MEX-5/POS-1 RNA-binding inhibitor project, dose response (AID 1959); type: functional
Nonstructural protein 1 = Nonstructural protein 1 (Influenza A virus, UniProt Q194T2); type: functional, Influenza A virus (A/California/07/2009(H1N1))
Nonstructural protein 1, sequence (Q194T2 whole entry): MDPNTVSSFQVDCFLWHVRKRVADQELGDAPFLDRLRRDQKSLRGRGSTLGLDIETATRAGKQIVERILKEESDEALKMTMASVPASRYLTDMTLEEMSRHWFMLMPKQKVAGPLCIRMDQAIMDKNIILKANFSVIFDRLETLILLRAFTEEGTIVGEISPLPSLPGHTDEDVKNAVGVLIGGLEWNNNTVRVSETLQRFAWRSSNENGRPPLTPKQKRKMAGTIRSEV

[4] = viability loss in HeLa cells – cytotoxicity control for MgcRacGAP inhibitor project, dose response (AID 624300); type: functional
[5] = target: T4, Rac GTPase-activating protein 1 (Homo sapiens, UniProt Q9H0H5); assay: blockers of MgcRacGAP-driven Rac1 GTP hydrolysis – biochemical, ADP Hunter fluorescence, primary and confirmatory, confirmation (AID 624330); type: functional
T4 sequence (Q9H0H5 whole entry): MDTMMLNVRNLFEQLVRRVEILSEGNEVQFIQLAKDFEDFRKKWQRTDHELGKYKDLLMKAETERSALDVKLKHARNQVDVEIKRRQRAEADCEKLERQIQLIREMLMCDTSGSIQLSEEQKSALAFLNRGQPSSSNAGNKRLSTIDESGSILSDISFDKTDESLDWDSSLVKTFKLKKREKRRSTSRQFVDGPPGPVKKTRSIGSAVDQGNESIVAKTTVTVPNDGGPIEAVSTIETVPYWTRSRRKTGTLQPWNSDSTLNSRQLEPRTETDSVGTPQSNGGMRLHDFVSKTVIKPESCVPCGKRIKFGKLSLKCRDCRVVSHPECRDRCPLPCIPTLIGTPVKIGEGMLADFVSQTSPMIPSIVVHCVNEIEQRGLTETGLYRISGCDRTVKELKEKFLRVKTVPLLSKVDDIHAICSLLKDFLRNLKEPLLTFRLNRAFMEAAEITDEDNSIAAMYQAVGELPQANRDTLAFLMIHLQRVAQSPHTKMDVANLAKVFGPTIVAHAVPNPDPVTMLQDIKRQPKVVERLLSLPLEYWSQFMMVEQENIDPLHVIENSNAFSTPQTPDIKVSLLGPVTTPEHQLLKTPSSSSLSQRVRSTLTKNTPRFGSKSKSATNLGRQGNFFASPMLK

[6] = HGIII-sPLA2 enzyme inhibition potency – biochemical, QFRET, IC50, dose response (AID 743457);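 note: green fluorescence rise as the enzyme cleaves BODIPY PC-A2 in liposomes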
[7] = tested on: Streptococcus sp. 'group A'; assay: Streptococcus pyogenes SK(-)GAS viability under kanamycin – luminescence, BacTiterGlo, confirmation, counter-screen for streptokinase expression inhibitor project, dose response (AID 1900); type: functional, organism-based
[8] = target: Voltage-gated inwardly rectifying potassium channel KCNH2 (Homo sapiens, UniProt Q12809); assay: concentration-dependent hERG rescue from blockers – cell-based, thallium flux, dose response (AID 2121); type: ADME
Voltage-gated inwardly rectifying potassium channel KCNH2, sequence (Q12809 whole entry): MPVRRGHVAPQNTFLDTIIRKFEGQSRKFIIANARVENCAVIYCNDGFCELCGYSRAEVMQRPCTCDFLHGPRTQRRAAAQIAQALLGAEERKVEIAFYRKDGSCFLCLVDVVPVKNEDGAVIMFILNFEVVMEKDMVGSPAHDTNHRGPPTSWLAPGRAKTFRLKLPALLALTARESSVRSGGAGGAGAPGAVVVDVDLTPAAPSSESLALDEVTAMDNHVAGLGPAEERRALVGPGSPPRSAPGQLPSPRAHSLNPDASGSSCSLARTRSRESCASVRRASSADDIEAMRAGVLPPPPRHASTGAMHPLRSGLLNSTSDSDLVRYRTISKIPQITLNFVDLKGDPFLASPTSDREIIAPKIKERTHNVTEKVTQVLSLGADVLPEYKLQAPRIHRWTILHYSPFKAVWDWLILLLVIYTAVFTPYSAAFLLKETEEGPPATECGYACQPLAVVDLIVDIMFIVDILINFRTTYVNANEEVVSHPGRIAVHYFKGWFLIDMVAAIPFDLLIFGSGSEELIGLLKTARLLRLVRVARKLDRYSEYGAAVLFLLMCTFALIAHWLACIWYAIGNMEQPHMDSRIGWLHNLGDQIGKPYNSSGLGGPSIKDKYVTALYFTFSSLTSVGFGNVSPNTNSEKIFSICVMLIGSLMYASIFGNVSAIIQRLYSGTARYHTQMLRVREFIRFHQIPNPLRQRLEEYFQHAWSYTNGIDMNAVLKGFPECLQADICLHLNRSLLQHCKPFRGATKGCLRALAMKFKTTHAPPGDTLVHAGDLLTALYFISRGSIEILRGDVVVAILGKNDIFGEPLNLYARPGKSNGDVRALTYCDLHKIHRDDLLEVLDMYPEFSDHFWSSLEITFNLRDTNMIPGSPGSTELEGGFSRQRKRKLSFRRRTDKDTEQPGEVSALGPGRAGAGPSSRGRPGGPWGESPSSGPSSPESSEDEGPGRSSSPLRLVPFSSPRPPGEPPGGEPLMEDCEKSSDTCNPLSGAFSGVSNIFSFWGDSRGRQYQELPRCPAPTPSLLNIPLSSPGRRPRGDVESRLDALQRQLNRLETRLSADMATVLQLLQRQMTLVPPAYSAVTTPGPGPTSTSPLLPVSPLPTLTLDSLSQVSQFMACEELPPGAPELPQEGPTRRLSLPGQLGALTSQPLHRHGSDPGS

Streptococcus = assay: GAS UMAA2166 growth inhibition – luminescence, BacTiterGlo, counter-screen for streptokinase expression inhibitor project, dose response (AID 1915); type: functional, organism-based;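 note: potency for reduction of bacterial viability or growth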
Bcl-2-related protein A1 [9] = target: T5, Bcl-2-related protein A1 (Mus musculus, UniProt Q07440); assay: small-molecule antagonists of Bfl-1/BH3 interaction – biochemical, TR-FRET, mouse Bfl-1, confirmation (AID 621);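 note: TR-FRET binding of GST-Bfl-1 to FITC-labelled Bid peptide via terbium antibody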
T5 sequence (Q07440 whole entry): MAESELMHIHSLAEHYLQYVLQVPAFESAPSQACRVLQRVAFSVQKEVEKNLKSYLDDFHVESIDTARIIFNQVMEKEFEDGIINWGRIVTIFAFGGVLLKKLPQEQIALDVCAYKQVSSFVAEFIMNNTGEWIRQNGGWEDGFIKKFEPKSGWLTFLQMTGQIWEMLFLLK

Bcl-2-related protein A1 [10] = target: T5, Bcl-2-related protein A1; assay: Bfl-1 binding inhibitors, SAR follow-up, biochemical, fluorescence polarization (AID 1070)
Protein skinhead-1 = target: T6, Protein skinhead-1 (Caenorhabditis elegans, UniProt P34707); type: functional
T6 sequence (P34707 whole entry): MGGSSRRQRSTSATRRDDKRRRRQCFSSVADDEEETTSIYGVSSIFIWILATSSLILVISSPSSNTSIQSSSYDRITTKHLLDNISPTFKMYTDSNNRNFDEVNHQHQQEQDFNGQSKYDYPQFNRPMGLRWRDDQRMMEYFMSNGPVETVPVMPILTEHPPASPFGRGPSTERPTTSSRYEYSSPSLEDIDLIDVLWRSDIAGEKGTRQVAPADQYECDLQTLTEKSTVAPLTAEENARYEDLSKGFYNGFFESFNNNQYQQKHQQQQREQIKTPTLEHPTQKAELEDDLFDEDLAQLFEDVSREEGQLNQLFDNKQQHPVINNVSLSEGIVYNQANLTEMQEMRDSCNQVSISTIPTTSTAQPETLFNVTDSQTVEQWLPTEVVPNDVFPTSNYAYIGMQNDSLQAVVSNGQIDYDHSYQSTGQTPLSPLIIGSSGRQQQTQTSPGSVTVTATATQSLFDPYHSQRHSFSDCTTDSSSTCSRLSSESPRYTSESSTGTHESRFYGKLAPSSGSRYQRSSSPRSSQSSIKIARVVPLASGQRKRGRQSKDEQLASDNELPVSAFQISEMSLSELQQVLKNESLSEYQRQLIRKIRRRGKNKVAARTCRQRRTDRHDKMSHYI

[11] = Luminescent dose response cell-based high throughput screening assay for inhibitors of the Janus kinase 2 mutant JAK2V617F. [Related pubchem assays: 1446 (Primary screen.), 1521 (Confirmation assay.), 1486 (Counter screen.)]; type: functional
[12] = THP-1 cell cytotoxicity, dose response, cytotoxicity control for non-replicating M. tuberculosis project (AID 489025); type: functional
[13] = HepG2 cell cytotoxicity, dose response, cytotoxicity control for non-replicating M. tuberculosis project (AID 489018); type: functional; conditions: Mycobacterium tuberculosis
[14] = Vero E6 cell cytotoxicity, dose response, cytotoxicity control for non-replicating M. tuberculosis project, secondary assay (AID 492998); type: functional, VeroE6; conditions: Vero C1008
cells = type: functional
Paired box protein Pax-8 = Paired box protein Pax-8 (Homo sapiens, UniProt Q06710); assay: PAX8 transcriptional activity inhibition in RMG-I – RMG-I cells, luciferase, cherry-pick, dose response (AID 687027); type: functional, cell-based;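 note: luciferase reporter driven by Pax8 target thyroperoxidase promoter measured by SteadyGlo luminescence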
Paired box protein Pax-8, sequence (Q06710 whole entry): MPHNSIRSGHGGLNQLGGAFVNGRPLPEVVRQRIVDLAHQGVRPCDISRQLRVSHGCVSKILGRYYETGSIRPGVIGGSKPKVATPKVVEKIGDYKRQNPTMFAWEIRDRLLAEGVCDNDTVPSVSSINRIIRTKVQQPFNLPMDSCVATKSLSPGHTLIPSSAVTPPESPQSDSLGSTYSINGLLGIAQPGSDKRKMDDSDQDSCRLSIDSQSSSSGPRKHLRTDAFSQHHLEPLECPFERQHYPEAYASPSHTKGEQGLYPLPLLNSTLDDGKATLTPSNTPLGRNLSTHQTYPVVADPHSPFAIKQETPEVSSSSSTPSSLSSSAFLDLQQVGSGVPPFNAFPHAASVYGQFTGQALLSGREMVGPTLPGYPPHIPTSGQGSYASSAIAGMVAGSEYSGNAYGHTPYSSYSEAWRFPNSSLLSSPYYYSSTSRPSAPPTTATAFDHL

Structure (SMILES): CC[n+]1c(/C=C/c2ccc(N(C)C)cc2)ccc2ccccc21
- IC50 (Leucine aminopeptidase): 110 µM (active)
- EC50 [1]: > 300 µM (not active)
- EC50 [2]: > 300 µM (not active)
- EC50 [3]: 37.8 µM (active)
- IC50 (Nonstructural protein 1): 18.9 µM (active)
- CC50 [4]: 39.7 µM (active)
- IC50 [5]: 46.6 µM (active)
- IC50 [6]: 34 µM (inactive)

Structure (SMILES): CCOc1ccc2nc(N3C(=O)/C(=C/c4ccc(Cl)cc4)NC3=S)sc2c1
- EC50 [7]: 1.8 µM (active)
- EC50 [8]: 1.24 µM (active)
- EC50 (Streptococcus): 0.855 µM (active)

Structure (SMILES): Fc1ccc(-n2nnc(-c3cccnc3)n2)cc1
- IC50 (Bcl-2-related protein A1 [9]): > 100 µM (not active)
- IC50 (Bcl-2-related protein A1 [10]): > 100 µM (not active)
- IC50 (Protein skinhead-1): 17.4 µM (active)

Structure (SMILES): CCOc1ccc(C(=O)C(CN2CCOCC2)c2ccccc2)cc1 (stereo not given)
- IC50 [11]: 0.73 µM (active)
- CC50 [12]: 5.48 µM (active)
- CC50 [13]: 16.1 µM (active)
- CC50 [14]: 8.04 µM (active)
- IC50 (cells): 10.3 µM (active)
- AC50 (Paired box protein Pax-8): 1.96 µM (active)
